Assay [1] deals with mouse colon adenocarcinoma (CT-26) cells. Briefly: Resazurin cell viability assay, (photo)cytotoxicity under hypoxia (1% O2). Format: cell-based. How it is done: (100 U ml−1), streptomycin (100 U ml−1), and 1% L-glutamine. The murine fibrosarcom a (MCA205) cells were cultured in RPMI 1640 medium with 10% fetal bovine serum (FBS), penicillin (100 U ml−1), streptomycin (100 U ml−1), and 1% L-glutamine. All cells were incubated at 37 °C in a humidified atmosphere with 5 % CO2.
Normoxia. The in vitro viability of cells exposed to the complexes was determined using a resazurin assay. C ells were seeded in 96-well plates at densities of 4,000 cells/well for CT26, MC A205 and U-87 MG cells, and 8,000 cells/well for MRC-5 and NIH/3T3 cells. A fter 24 h of growth at 37 °C wit h 5% CO2, the medium was replaced with fresh medium containing various concentrations of the compounds . […] After a 40- h r ecov ery period, a f reshly pr epar ed resazurin solution (0.2 mg/mL) was added to each well, and the plates were left in the dark for 4 h before analysis on a B i o Te k Cytation 5 Cell Imaging Multimode Reader (Agil ent Technologies). […]
Non-irradiat ed plates were similarly refreshed with medium and k ept in th e d ark fo r the same duration. After a 40 -h recovery period, a f res hly prepar ed resazurin solution (0.2 mg/mL) was added to each well, and the plates were left in the dark for 4 h before analysis on a BioTek Cytation 5 Cell Imaging Multimode Reader (Agilent […]
For orientation: Resazurin is reduced to fluorescent resorufin, in cell work by metabolically active cells.

The subject of the next assay is HMGB‐1. Briefly: Immunofluorescence staining of HMGB-1 (release) in MCA205 cells. The note with it: MCA205, PS at IC50, illumination at 740 nm. Format: cell-based, mouse. How it is done:
We then used the corresponding IC50 values of each PS to evaluate their in vitro ICD induction on MCA205 cells. […] As a result, we chose Ce6 as the positive control for our subsequent in vivo tests on MCA205 cells.
Scientific, Catalog no.15 5411) at a d ensity of 8,00 0 cells p er well and cultu red fo r 24 h at 37 °C with 5 % CO2. T he cells wer e then treated with a solution of the compounds at a concentration corresponding to the IC50 for 4 h. After refreshing the medium, cells were subjected to irradiation and incubated for an additional 12 h. Subsequently, the cells were fix ed with 4% paraformaldehyde and immunostained with Anti- Calreticulin antibody (Abcam, Catalog no. ab2907) diluted 1/1000 at 4 °C overnight. Cells were then washed three times with PBS, treated with Goat Anti- Rabbit IgG H&L (Alexa […]
temperature in the dark, washed in PBS and treat ed with 10 µg/mL Hoechst for 15 min.
After a final wash, cells were analyzed by confocal microscopy as det ailed above.
Immunofluorescence st aining of HMGB-1
CT26 or MCA205 cells were seeded in Lab -Te k ® Chambered Coverglass System (Thermo Fisher Scientific, Catalog no.155411) at a density of 8,000 cells per well and cultured for 24 h at 37 °C with 5% CO2. The cells were then treated with a solution of the compounds at a concentration corresponding to the IC50 for 4 h. […]

Like-named read-outs stand apart in the source and are kept apart here. A value given as a limit tells only on which side of the number the result lay.

A word on the IC50: it is the concentration needed to halve the response being measured. `C=Cc1c(C)c2cc3nc(c(CC(=O)O)c4[nH]c(cc5nc(cc1[nH]2)C(C)=C5CC)c(C)c4C(=O)O)[C@@H](CCC(=O)O)[C@@H]3C` [Ce6, chlorin e6]: the IC50 in assay [1] (CT26, CT-26, hypoxia (1% O2), dark, read-out: IC50 Dark) is > 100 µM; in assay [1] (CT26, light or radiation study, 1 h, CT-26, hypoxia (1% O2), 740 nm, 60 min, 12.60 J/cm2, read-out: IC50 740 nm) it was 5.63 ± 0.41 µM. Further, the “HMGB‐1 release” value with HMGB‐1 was “significantly promoted”.

The record behind these values is paper PMC13327620, “A Deep‐Red‐Absorbing Osmium(II) Complex as a Photosensitizer for Photodynamic Therapy Inducing Immunogenic Cell Death” (Angewandte Chemie (International Ed. in English), 2026).
